Series [1] in a line: Pharmacokinetics in mice by oral cassette dosing. The note with it: oral cassette dosing at 5 mg/kg, blood. The series is classed as in vivo.
Description: All the animal experiments were performed according to protocols approved by the Animal Use and Care Committee of University of California, Davis. […] Each cassette was orally administered to 4 mice at a dose of 5 mg/kg in 120-150 μl of vehicle depending on animal weight. […] The instrument was equipped with a linear ion trap and a Turbo V ion source and was operated in negative ion MRM mode. […] This was maintained for 3 min, then the gradient was returned to 30% solvent B in 2 min. The flow rate was 0.4 mL/min. The injection volume was 10 μL and the samples were kept at 4° C. in the auto sampler.
The test system of series [2] is HepG2 cells. Briefly: HepG2 cell viability analysis (MTT). The series is classed as cell-based. Here is the method:
Cells were plated at 10,000 cell per well in 96-well plates and allowed to attach overnight under the growth conditions described above. […] These compounds were dissolved in 100% DMSO and diluted with EMEM to the desired concentration of 0.1 μM, 1.0 μM, 10 μM, 25 μM, and 50 μM, with a final DMSO concentration of 0.1% for all cell-based in vitro studies. All studies included DMSO as a solvent control. Cell viability was determined using the MTT Cell Viability Assay Kit from ATCC according to manufacturer's instructions. The 96-well plates were measure at 570 nm using SpectroMax 190 plate reader (Molecular Devices, Sunnyvale, Calif.). […] Each concentration was performed in triplicate per 96-well plate and EC50 data are presented as the mean±standard deviation from at least 3 separate experiments performed on separate days.

For series [3], the system named is HUVEC cells. Description: HUVEC endothelial tube formation assay. The series is classed as cell-based, human. Particulars: treated for 4-6 hours, FIG. 12. As for the experimental part: Endothelial tube formation assay was carried out using a slightly modified method described by Arnaoutova and Kleinman (Nat. Protocols 5, 628-635). Briefly, 96-well plates were coated with growth-factor reduced Matrigel (50 μL per well, BD Biosciences, San Jose, Calif.) at 37° C. for 30 min. HUVEC cells were seeded into the 96-well plates at 2×10^4 cells per well in 100 μL serum-free F-12K medium with or without test compounds and incubated for 6 h 37° C. in the incubator. Microscope image was recorded and analyzed by NIH Image J software.

In series [4] the test system is cancer cells (H-1, PC-3, A375, Met-1). Briefly: Cancer cell proliferation assay (MTT). It is filed as cell-based. The note with it: times higher than in endothelial cells, FIG. 14. Here is the method:
Cells (HUVEC, H-1, PC-3, A375, Met-1) were seeded into 96-well plates at 1.0-1.5×10^3 cells per well in 100 μL complete medium. After 24 h, the medium was replaced with fresh complete medium containing test compounds and the cells were incubated for another 72 hours. Cell viability was assessed by MTT assay (Sigma-Aldrich).

The test system of series [5] is MMP activity in HUVEC cells. Description: Matrix metalloproteinase (MMP) assay by zymography, HUVEC cells. Particulars: FIG. 17 right. The series is classed as cell-based, human. Here is the method: MMP activity in PC-3 and HUVEC cells were carried out by zymography (J Vis Exp, e2445). […] After that, the gels were incubated at renaturing buffer for 30 min, followed with incubation at zymography developing buffer for 30 min at room temperature, and replaced with fresh developing buffer and incubated at 37° C. overnight. The gels were stained by Coomassie blue, and images were recorded and analyzed by NIH Image J software.

The target in series [6] is T1, 5-LOX (Homo sapiens, UniProt P09917).
T1 sequence (P09917 1-674): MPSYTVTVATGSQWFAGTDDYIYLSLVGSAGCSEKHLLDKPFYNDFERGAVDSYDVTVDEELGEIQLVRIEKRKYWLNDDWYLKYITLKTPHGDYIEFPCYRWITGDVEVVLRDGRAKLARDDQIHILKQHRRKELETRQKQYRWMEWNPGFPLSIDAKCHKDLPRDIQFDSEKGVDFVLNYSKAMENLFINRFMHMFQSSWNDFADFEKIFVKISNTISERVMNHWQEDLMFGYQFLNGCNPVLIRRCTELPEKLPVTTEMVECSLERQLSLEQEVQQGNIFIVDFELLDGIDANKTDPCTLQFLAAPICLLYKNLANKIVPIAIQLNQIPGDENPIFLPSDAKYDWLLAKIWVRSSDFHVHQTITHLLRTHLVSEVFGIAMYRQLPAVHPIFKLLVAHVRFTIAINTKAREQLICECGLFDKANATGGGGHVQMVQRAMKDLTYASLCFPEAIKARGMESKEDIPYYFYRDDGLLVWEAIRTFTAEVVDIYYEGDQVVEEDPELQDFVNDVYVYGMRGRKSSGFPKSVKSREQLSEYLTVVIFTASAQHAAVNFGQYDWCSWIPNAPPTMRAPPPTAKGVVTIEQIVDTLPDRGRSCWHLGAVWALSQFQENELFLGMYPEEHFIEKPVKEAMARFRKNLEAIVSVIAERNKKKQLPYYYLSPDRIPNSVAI
Description: Potency against 5-LOX. The series is classed as biochemical. Particulars: compared with celecoxib.

A short description of series [7]: Pharmacokinetics in rats by oral administration.
Where [8] appears, read: 21i in comparison with 21j, rats oral 1 mg/kg.
Setting [9] is: rats, oral administration at 1 mg/kg (n = 4), blood.

The structures appear in SMILES notation.

As to `NS(=O)(=O)c1ccc(-n2nc(CCCNC(=O)Nc3ccc(C(F)(F)F)cc3)cc2-c2ccccc2)cc1` [Compound 21i, 4-(5-Phenyl-3-{3-[3-(4-trifluoromethyl-phenyl)-ureido]-propyl}-pyrazol-1-yl)-benzenesulfonamide], in series [1], the AUC came to 0.98 µM·h, the Cmax turned out to be 260 nM, the Tmax is reported as 0.8 h and the t1/2 turned out to be 2.6 h. In series [2] (Homo sapiens, HepG2, MTT after 24 hours of incubation), this molecule gave an EC50 of 4.5 ± 0.5 µM. Further, the “Effect on HepG2 cell viability (killing cancer cells), in words” value in series [2] (dose dependence, FIG. 9) is on record as “more efficient than Celecoxib in combination or not with t-TUCB in killing the cancer cells”. For the same molecule, in series [3], the “HUVEC tube formation, in words” value was “inhibits endothelial proliferation assay of HUVEC cells”. The “IC50 in cancer cells relative to endothelial cells” value in series [4] was 5-10 times. Moreover, the “MMP activity, in words” value in series [5] was “no effect on MMP activity”. For the same molecule, in series [6], the “Potency against 5-LOX, in words” value is “comparable with celecoxib”. In series [7] (setting [8]), the “Higher AUC in rats” value is reported as 2 fold and the “Higher Cmax in rats” value is on record as 2 fold. Moreover, in series [7] (setting [9]), the AUC was 2.764 ± 0.804 µM·h, the concentration peaked (Cmax) at 415 ± 139 nM, the Tmax turned out to be 1.5 ± 0.6 h and the t1/2 came to 12.9 ± 3.8 h.

One may read the AUC as the area under the concentration-time curve, a measure of exposure. Read a high AUC as more exposure. A word on the Cmax: it is the peak of the concentration-time curve. A word on the Tmax: it is the time from dosing to the highest level. What is called EC50 is the concentration giving half of the maximal effect. Read a high EC50 as a need for much substance.

Source of the values: patent US9096532B2, “Pyrazole inhibitors of COX-2 and sEH” (The Regents of the University of California, priority 2010, dated 2015).
